Data taken from patent publication US20080234262A1 (Wyeth, priority 2007, published 2008).
pIC50: −log10 of the molar value.

How the values were obtained:
prostate line LNCap = test: In vitro cell culture growth assay (MTS), LNCap; format: cell-based, human; conditions: LNCap cells, three days after drug treatment;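 also: viable cell density read by absorbance at 490 nm, growth expressed as percent of vehicle-treated cells on the same plate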
breast line MDA468 = test: In vitro cell culture growth assay (MTS), MDA468; format: cell-based, human; conditions: MDA468 cells, three days after drug treatment
How it was run: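 Three-day drug treatment starting 1 day post-plating; viable cells quantified via MTS metabolism (A490); effect normalised to in-plate vehicle controls as % growth.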

## CC(=O)Nc1ccc(-c2nc(N3CCOCC3)c3cnn(C4CCN(Cc5ccccc5)CC4)c3n2)cc1 [Example 80, N-{4-[1-(1-benzylpiperidin-4-yl)-4-morpholin-4-yl-1H-pyrazolo[3,4-d]pyrimidin-6-yl]phenyl}acetamide]
Prostate line LNCap; Homo sapiens, LNCaP, 72 h
  pIC50: 6.35
Breast line MDA468; Homo sapiens, 72 h
  pIC50: 5.64

## CNC(=S)Nc1ccc(-c2nc(N3CCOCC3)c3cnn(C4CCN(Cc5cccnc5)CC4)c3n2)cc1 [Compound 622, 1-methyl-3-(4-{4-morpholin-4-yl-1-[1-(pyridin-3-ylmethyl)piperidin-4-yl]-1H-pyrazolo[3,4-d]pyrimidin-6-yl}phenyl)thiourea]
Prostate line LNCap; Homo sapiens, LNCaP, 72 h
  pIC50: 7.15
Breast line MDA468; Homo sapiens, 72 h
  pIC50: 6.30

## Nc1cccc(-c2nc(N3CCOCC3)c3cnn(-c4ccccc4)c3n2)n1 [Compound 683, 6-(4-morpholin-4-yl-1-phenyl-1H-pyrazolo[3,4-d]pyrimidin-6-yl)pyridin-2-amine]
Prostate line LNCap
  pIC50: < 4.22
Breast line MDA468
  pIC50: < 4.22

## CNC(=S)Nc1ccc(-c2nc(N3CCOCC3)c3cnn(C4CCN(Cc5cccnc5)CC4)c3n2)cc1 [Example 377, 1-methyl-3-(4-{4-morpholin-4-yl-1-[1-(pyridin-3-ylmethyl)piperidin-4-yl]-1H-pyrazolo[3,4-d]pyrimidin-6-yl}phenyl)thiourea]
Prostate line LNCap; Homo sapiens, LNCaP, 72 h
  pIC50: 7.15
Breast line MDA468; Homo sapiens, 72 h
  pIC50: 6.30

## O=CNc1ccc(-c2nc(N3CCOCC3)c3cnn(C4CCN(Cc5ccccc5)CC4)c3n2)cc1 [Compound 485, N-{4-[1-(1-benzylpiperidin-4-yl)-4-morpholin-4-yl-1H-pyrazolo[3,4-d]pyrimidin-6-yl]phenyl}formamide]
Prostate line LNCap; Homo sapiens, LNCaP, 72 h
  pIC50: 5.85
Breast line MDA468; Homo sapiens, 72 h
  pIC50: 5.35

## Nc1ccc(-c2nc(N3CCOCC3)c3cnn(-c4ccccc4)c3n2)cc1 [Compound 106, 4-(4-morpholin-4-yl-1-phenyl-1H-pyrazolo[3,4-d]pyrimidin-6-yl)aniline4-(4-morpholin-4-yl-1-phenyl-1H-pyrazolo[3,4-d]pyrimidin-6-yl)aniline]
Prostate line LNCap; Homo sapiens, LNCaP, 72 h
  pIC50: 5.52
Breast line MDA468; Homo sapiens, 72 h
  pIC50: 4.96

## Cn1ncc2c(N3CCC(n4c(=O)[nH]c5ccccc54)CC3)nc(-c3ccccc3)nc21 [Example 12]
Prostate line LNCap; Homo sapiens, LNCaP, 72 h
  pIC50: 6.12
Breast line MDA468; Homo sapiens, 72 h
  pIC50: 4.92

## Nc1ccc(-c2nc(N3CCOCC3)c3cnn(-c4ccccc4)c3n2)cn1 [Example 129, 5-(4-morpholin-4-yl-1-phenyl-1H-pyrazolo[3,4-d]pyrimidin-6-yl)pyridin-2-amine]
Prostate line LNCap; Homo sapiens, LNCaP, 72 h
  pIC50: 6.39
Breast line MDA468; Homo sapiens, 72 h
  pIC50: 5.89

## CN(C)C(=O)c1ccc(-c2nc(N3CCOCC3)c3cnn(C4CCN(Cc5ccccc5)CC4)c3n2)cc1 [Example 71]
Prostate line LNCap; Homo sapiens, LNCaP, 72 h
  pIC50: 5.00
Breast line MDA468; Homo sapiens, 72 h
  pIC50: 4.89

## COCCC(=O)Nc1ccc(-c2nc(N3CCOCC3)c3cnn(-c4ccccc4)c3n2)cc1 [Compound 138]
Prostate line LNCap; Homo sapiens, LNCaP, 72 h
  pIC50: 5.31
Breast line MDA468; Homo sapiens, 72 h
  pIC50: 5.19

## Oc1cccc(-c2nc(N3CCOCC3)c3cnn(C4CCN(Cc5ccccc5)CC4)c3n2)c1 [Compound 8]
Prostate line LNCap; Homo sapiens, LNCaP, 72 h
  pIC50: 6.66
Breast line MDA468; Homo sapiens, 72 h
  pIC50: 5.72

## Nc1cccc(-c2nc(N3CCOCC3)c3cnn(-c4ccccc4)c3n2)n1 [Compound 439, 6-(4-morpholin-4-yl-1-phenyl-1H-pyrazolo[3,4-d]pyrimidin-6-yl)pyridin-2-amine]
Prostate line LNCap; Homo sapiens, LNCaP, 72 h
  pIC50: 4.22
Breast line MDA468; Homo sapiens, 72 h
  pIC50: 4.22

## CC(=O)N(C)c1ccc(-c2nc(N3CCOCC3)c3cnn(-c4ccccc4)c3n2)cc1 [Compound 149, N-methyl-N-[4-(4-morpholin-4-yl-1-phenyl-1H-pyrazolo[3,4-d]pyrimidin-6-yl)phenyl]acetamide]
Prostate line LNCap; Homo sapiens, LNCaP, 72 h
  pIC50: 5.35
Breast line MDA468; Homo sapiens, 72 h
  pIC50: 4.40

## N#CN=C(N)Nc1ccc(-c2nc(N3CCOCC3)c3cnn(C4CCN(Cc5cccnc5)CC4)c3n2)cc1 [Example 406, 2-cyano-1-(4-{4-morpholin-4-yl-1-[1-(pyridin-3-ylmethyl)piperidin-4-yl]-1H-pyrazolo[3,4-d]pyrimidin-6-yl}phenyl)guanidine]
Prostate line LNCap; Homo sapiens, LNCaP, 72 h
  pIC50: 5.85
Breast line MDA468; Homo sapiens, 72 h
  pIC50: 5.96

## NCCC(=O)Nc1ccc(-c2nc(N3CCOCC3)c3cnn(-c4ccccc4)c3n2)cc1 [Compound 134]
Prostate line LNCap; Homo sapiens, LNCaP, 72 h
  pIC50: 5.92
Breast line MDA468; Homo sapiens, 72 h
  pIC50: 5.89

## O=C(c1cccnc1)N1CCC(n2ncc3c(N4CCOCC4)nc(-c4ccc5[nH]ccc5c4)nc32)CC1 [Compound 38, 6-(1H-indol-5-yl)-4-morpholin-4-yl-1-[1-(pyridin-3-ylcarbonyl)piperidin-4-yl]-1H-pyrazolo[3,4-d]pyrimidine]
Prostate line LNCap; Homo sapiens, LNCaP, 72 h
  pIC50: 6.42
Breast line MDA468; Homo sapiens, 72 h
  pIC50: 5.96

## Nc1ccc(-c2nc(N3CCOCC3)c3cnn(C4CCN(Cc5ccccc5)CC4)c3n2)cn1 [Compound 155]
Prostate line LNCap; Homo sapiens, LNCaP, 72 h
  pIC50: 7.00
Breast line MDA468; Homo sapiens, 72 h
  pIC50: 6.00

## CC(=O)Nc1ccc(-c2nc(N3CCOCC3)c3cnn(-c4ccccc4)c3n2)cc1 [Compound 108, N-[4-(4-morpholin-4-yl-1-phenyl-1H-pyrazolo[3,4-d]pyrimidin-6-yl)phenyl]acetamide]
Prostate line LNCap; Homo sapiens, LNCaP, 72 h
  pIC50: 4.22
Breast line MDA468; Homo sapiens, 72 h
  pIC50: 4.22

## CC(=O)Nc1cccc(-c2nc(N3CCOCC3)c3cnn(C4CCN(Cc5ccccc5)CC4)c3n2)c1 [Compound 78]
Prostate line LNCap; Homo sapiens, LNCaP, 72 h
  pIC50: 5.10
Breast line MDA468; Homo sapiens, 72 h
  pIC50: 4.92

## COC(=O)Nc1ccc(-c2nc(N3CCOCC3)c3cnn(C4CCN(C(=O)c5ccc(C#N)cc5)CC4)c3n2)cc1 [Example 447, methyl (4-{1-[1-(4-cyanobenzoyl)piperidin-4-yl]-4-morpholin-4-yl-1H-pyrazolo[3,4-d]pyrimidin-6-yl}phenyl)carbamate]
Prostate line LNCap; Homo sapiens, LNCaP, 72 h
  pIC50: 6.22
Breast line MDA468; Homo sapiens, 72 h
  pIC50: 5.92

## COCC(=O)N1CCC(n2ncc3c(N4CCOCC4)nc(-c4cccc(O)c4)nc32)CC1 [Example 30]
Prostate line LNCap; Homo sapiens, LNCaP, 72 h
  pIC50: 6.30
Breast line MDA468; Homo sapiens, 72 h
  pIC50: 5.85

## c1ccc(-n2ncc3c(N4CCOCC4)nc(-c4ccc5[nH]ccc5c4)nc32)cc1 [Compound 110]
Prostate line LNCap; Homo sapiens, LNCaP, 72 h
  pIC50: 5.70
Breast line MDA468; Homo sapiens, 72 h
  pIC50: 5.26

## Oc1ccc(-c2nc(N3CCOCC3)c3cnn(C4CCN(Cc5ccccc5)CC4)c3n2)cc1 [Compound 232, 4-[1-(1-benzylpiperidin-4-yl)-4-morpholin-4-yl-1H-pyrazolo[3,4-d]pyrimidin-6-yl]phenol]
Prostate line LNCap; Homo sapiens, LNCaP, 72 h
  pIC50: 5.85
Breast line MDA468; Homo sapiens, 72 h
  pIC50: 5.40

## O=CNc1ccc(-c2nc(N3CCOCC3)c3cnn(C4CCN(Cc5ccccc5)CC4)c3n2)cc1 [Compound 231, N-{4-[1-(1-benzylpiperidin-4-yl)-4-morpholin-4-yl-1H-pyrazolo[3,4-d]pyrimidin-6-yl]phenyl}formamide]
Prostate line LNCap; Homo sapiens, LNCaP, 72 h
  pIC50: 5.85
Breast line MDA468; Homo sapiens, 72 h
  pIC50: 5.35

## c1cc2cc(-c3nc(N4CCOCC4)c4cnn([C@H]5CCCNC5)c4n3)ccc2[nH]1 [Compound 170, 6-(1H-indol-5-yl)-4-morpholin-4-yl-1-[(3S)-piperidin-3-yl]-1H-pyrazolo[3,4-d]pyrimidine]
Prostate line LNCap; Homo sapiens, LNCaP, 72 h
  pIC50: 5.48
Breast line MDA468; Homo sapiens, 72 h
  pIC50: 4.92

## CN1CCC(C(=O)Nc2ccc(-c3nc(N4CCOCC4)c4cnn(-c5ccccc5)c4n3)cc2)CC1 [Compound 141]
Prostate line LNCap; Homo sapiens, LNCaP, 72 h
  pIC50: 5.52
Breast line MDA468; Homo sapiens, 72 h
  pIC50: 5.42

## O=C(c1ccccc1)N1CCC(n2ncc3c(N4CCOCC4)nc(-c4cccc(O)c4)nc32)CC1 [Compound 25, 3-[1-(1-benzoylpiperidin-4-yl)-4-morpholin-4-yl-1H-pyrazolo[3,4-d]pyrimidin-6-yl]phenol]
Prostate line LNCap; Homo sapiens, LNCaP, 72 h
  pIC50: 6.85
Breast line MDA468; Homo sapiens, 72 h
  pIC50: 6.15

## CNS(=O)(=O)Nc1ccc(-c2nc(N3CCOCC3)c3cnn(C4CCN(C(=O)OC(C)(C)C)CC4)c3n2)cc1 [Compound 951, tert-butyl 4-(6-{4-[(methylsulfamoyl)amino]phenyl}-4-morpholin-4-yl-1H-pyrazolo[3,4-d]pyrimidin-1-yl)piperidine-1-carboxylate]
Prostate line LNCap; Homo sapiens, LNCaP, 72 h
  pIC50: 5.40
Breast line MDA468; Homo sapiens, 72 h
  pIC50: 5.11

## O=CNc1cccc(-c2nc(N3CCOCC3)c3cnn(C4CCN(Cc5ccccc5)CC4)c3n2)c1 [Example 77]
Prostate line LNCap; Homo sapiens, LNCaP, 72 h
  pIC50: 5.29
Breast line MDA468; Homo sapiens, 72 h
  pIC50: 5.05

## CN(C)CC(=O)Nc1ccc(-c2nc(N3CCOCC3)c3cnn(-c4ccccc4)c3n2)cc1 [Compound 135]
Prostate line LNCap; Homo sapiens, LNCaP, 72 h
  pIC50: 5.47
Breast line MDA468; Homo sapiens, 72 h
  pIC50: 5.92

## Nc1cccc(-c2nc(N3CCOCC3)c3cnn(-c4ccccc4)c3n2)c1 [Compound 107]
Prostate line LNCap; Homo sapiens, LNCaP, 72 h
  pIC50: 5.46
Breast line MDA468; Homo sapiens, 72 h
  pIC50: 5.00

## COC(=O)Nc1ccc(-c2nc(N3CCOCC3)c3cnn(-c4ccccc4)c3n2)cc1 [Example 101, methyl [4-(4-morpholin-4-yl-1-phenyl-1H-pyrazolo[3,4-d]pyrimidin-6-yl)phenyl]carbamate]
Prostate line LNCap; Homo sapiens, LNCaP, 72 h
  pIC50: 5.00
Breast line MDA468; Homo sapiens, 72 h
  pIC50: 4.66

## NCC(=O)Nc1ccc(-c2nc(N3CCOCC3)c3cnn(-c4ccccc4)c3n2)cc1 [Compound 136]
Prostate line LNCap; Homo sapiens, LNCaP, 72 h
  pIC50: 6.00
Breast line MDA468; Homo sapiens, 72 h
  pIC50: 6.40

## COC(=O)N1CCC(n2ncc3c(N4CCOCC4)nc(-c4ccc(NC(=O)Nc5ccncc5)cc4)nc32)CC1 [Compound 738, methyl 4-(4-morpholin-4-yl-6-{4-[(pyridin-4-ylcarbamoyl)amino]phenyl}-1H-pyrazolo[3,4-d]pyrimidin-1-yl)piperidine-1-carboxylate]
Prostate line LNCap; Homo sapiens, LNCaP, 72 h
  pIC50: > 7.57
Breast line MDA468; Homo sapiens, 72 h
  pIC50: > 7.57

## Nc1ccc(-c2nc(N3CCOCC3)c3cnn(-c4ccccc4)c3n2)nc1 [Compound 438, 6-(4-morpholin-4-yl-1-phenyl-1H-pyrazolo[3,4-d]pyrimidin-6-yl)pyridin-3-amine]
Prostate line LNCap; Homo sapiens, LNCaP, 72 h
  pIC50: 5.15
Breast line MDA468; Homo sapiens, 72 h
  pIC50: 4.22

## c1cc2cc(-c3nc(N4CCOCC4)c4cnn([C@@H]5CCCNC5)c4n3)ccc2[nH]1 [Compound 168]
Prostate line LNCap; Homo sapiens, LNCaP, 72 h
  pIC50: 5.47
Breast line MDA468; Homo sapiens, 72 h
  pIC50: 5.00

## Nc1cccc(-c2nc(N3CCOCC3)c3cnn(C4CCN(Cc5ccccc5)CC4)c3n2)c1 [Example 60]
Prostate line LNCap; Homo sapiens, LNCaP, 72 h
  pIC50: 5.70
Breast line MDA468; Homo sapiens, 72 h
  pIC50: 5.26

## Oc1ccc(-c2nc(N3CCOCC3)c3cnn(C4CCN(Cc5ccccc5)CC4)c3n2)cc1 [Compound 486, 4-[1-(1-benzylpiperidin-4-yl)-4-morpholin-4-yl-1H-pyrazolo[3,4-d]pyrimidin-6-yl]phenol]
Prostate line LNCap; Homo sapiens, LNCaP, 72 h
  pIC50: 5.85
Breast line MDA468; Homo sapiens, 72 h
  pIC50: 5.40

## c1ccc(-n2ncc3c(N4CCOCC4)nc(-c4csc5ccccc45)nc32)cc1 [Compound 7]
Prostate line LNCap; Homo sapiens, LNCaP, 72 h
  pIC50: 4.70
Breast line MDA468; Homo sapiens, 72 h
  pIC50: 4.42

## Oc1ccc(-c2nc(N3CCOCC3)c3cnn(C4CCN(Cc5ccccc5)CC4)c3n2)cn1 [Compound 192]
Prostate line LNCap; Homo sapiens, LNCaP, 72 h
  pIC50: 4.80
Breast line MDA468; Homo sapiens, 72 h
  pIC50: 4.40
